“Also recorded” adds a separate entry of the source.
Legend:
PKCβI [1] = assay: PKCβ1 translocation in glucose-stimulated mesangial cells (Western blot); type: cell-based; conditions: 1 hr pre-treatment, 25 mM glucose 5 days
Experimental: (§1) FIG. 9 is a diagrammatic representation showing the suppression of PKCβ1 translocation in glucose-stimulated mesangial cells (a) and in the glomeruli of a diabetic rat (b). Mesangial cells were pre-treated with MP5 or vehicle (ethanol) for 1 hr before being incubated with 25 mM glucose for 5 days. Male rats were rendered diabetic with streptozotocin and MP5 or vehicle (ethanol) was administered for 7 days after confirmation of diabetes. The cells and glomeruli were sonicated and particulate fraction-associated PKCβ1 was determined by Western blot analysis. High glucose and diabetes increased PKCβ1 in the particulate fraction.
Mesangial cells are prepared as previously described (Couper et al, 1994 supra).
Four groups of cells were set up: 5.5 mM glucose+ethanol (0.1% w/v or v/v), 5.5 mM glucose+MP5 (20 μM which is effective in the studies), 25 mM glucose+ethanol and 25 mM glucose+MP5. […] Cells were pre-incubated (30 min-24 h) with MP5 before being challenged with glucose for 4 days. […] Cells are then be washed, sonicated and the amount of each PKC isozyme in the particulate fraction determined by Western blot analysis. The soluble fractions were kept for estimation of soluble PKC (non-particulate fraction-associated). […] The cells remained viable throughout the period of study as judged by the trypan blue exclusion test. […]

PKCβI [2] = molecular target: T1, PKCβI (Rattus norvegicus, UniProt P68403); assay: PKCβ1 translocation in the glomeruli of streptozotocin-diabetic rats; type: in vivo; conditions: administered for 7 days after confirmation of diabetes
T1 construct: from tissue; host or cells: glomeruli of streptozotocin-diabetic male rats
T1 sequence (P68403 whole entry): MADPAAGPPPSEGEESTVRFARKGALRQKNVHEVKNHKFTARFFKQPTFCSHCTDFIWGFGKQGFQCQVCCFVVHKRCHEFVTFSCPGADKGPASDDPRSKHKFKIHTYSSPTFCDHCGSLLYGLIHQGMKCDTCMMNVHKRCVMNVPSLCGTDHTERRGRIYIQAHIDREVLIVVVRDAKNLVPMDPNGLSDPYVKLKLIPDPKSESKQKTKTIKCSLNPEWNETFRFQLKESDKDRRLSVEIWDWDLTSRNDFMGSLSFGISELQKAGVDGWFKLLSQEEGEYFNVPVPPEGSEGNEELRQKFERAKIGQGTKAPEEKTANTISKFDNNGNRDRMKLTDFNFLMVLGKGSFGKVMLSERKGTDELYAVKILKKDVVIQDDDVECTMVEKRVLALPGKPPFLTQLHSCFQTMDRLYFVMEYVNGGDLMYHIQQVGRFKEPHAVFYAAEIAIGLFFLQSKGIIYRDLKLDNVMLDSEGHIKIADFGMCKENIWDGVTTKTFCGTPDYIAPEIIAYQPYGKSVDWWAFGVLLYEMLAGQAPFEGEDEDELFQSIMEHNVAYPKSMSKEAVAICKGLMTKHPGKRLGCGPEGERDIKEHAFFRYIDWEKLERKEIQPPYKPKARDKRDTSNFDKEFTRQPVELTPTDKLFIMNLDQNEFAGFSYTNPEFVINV
Experimental: as §1

[3] = Long term in vivo tolerability of MP5; set-up: species or system rats; conditions: up to 100 mg/kg
Experimental: (§2) MP5 had minimal effects (<15%) on PKCε translocation and no effects on the translocation of the other PKC isozymes in Jurkat cells.
The ability of MP5 to inhibit renal TGFβ production and albuminuria in streptozotocin-induced diabetic Sprague-Dawley rats were investigated. MP5 is non toxic to rats given at up to 100 mg/kg chronically as determined by liver and kidney biochemical and electrolyte markers. […] Animals (130-150 g) were placed randomly in one of five groups: control, MP5-treated, diabetic, diabetic+MP5 and diabetic+MP1. Power analysis ([…], β=0.1) (expecting at least a 50% reduction and an SD of 30% of mean) indicate that 7-8 animals/group were needed. The rats were rendered diabetic using streptozotocin (65 mg/kg. I.P) and blood glucose levels were measured 48 hr later to confirm the onset of diabetes (glucose>15 mM). […] Blood glucose was measured every week. […] At the end of the MP5 treatment period, rats were sacrificed and the level of TGFβ mRNA (Kikkawa et al 1994 supra) in the glomeruli were determined by slot blot analysis (Ferrante et al, 1997 supra) and normalized by comparison with the level of GAPDH (glyceraldehyde 3-phosphate dehydrogenase) mRNA in the same sample (Ferrante et al, 1997 supra). The amount of albumin in the urine were measured by using a commercial kit (EXOCELL Inc. Philadelphia, Pa.). […]

PKCβII = molecular target: T2, PKCβII (Homo sapiens, UniProt P05771); assay: PMA-stimulated PKC translocation to the particulate fraction in HUVEC and other cell-types; type: cell-based
T2 construct: endogenous in cells; host or cells: HUVEC (and unnamed other cell-types)
T2 sequence (P05771 1-673 isoform P05771-2): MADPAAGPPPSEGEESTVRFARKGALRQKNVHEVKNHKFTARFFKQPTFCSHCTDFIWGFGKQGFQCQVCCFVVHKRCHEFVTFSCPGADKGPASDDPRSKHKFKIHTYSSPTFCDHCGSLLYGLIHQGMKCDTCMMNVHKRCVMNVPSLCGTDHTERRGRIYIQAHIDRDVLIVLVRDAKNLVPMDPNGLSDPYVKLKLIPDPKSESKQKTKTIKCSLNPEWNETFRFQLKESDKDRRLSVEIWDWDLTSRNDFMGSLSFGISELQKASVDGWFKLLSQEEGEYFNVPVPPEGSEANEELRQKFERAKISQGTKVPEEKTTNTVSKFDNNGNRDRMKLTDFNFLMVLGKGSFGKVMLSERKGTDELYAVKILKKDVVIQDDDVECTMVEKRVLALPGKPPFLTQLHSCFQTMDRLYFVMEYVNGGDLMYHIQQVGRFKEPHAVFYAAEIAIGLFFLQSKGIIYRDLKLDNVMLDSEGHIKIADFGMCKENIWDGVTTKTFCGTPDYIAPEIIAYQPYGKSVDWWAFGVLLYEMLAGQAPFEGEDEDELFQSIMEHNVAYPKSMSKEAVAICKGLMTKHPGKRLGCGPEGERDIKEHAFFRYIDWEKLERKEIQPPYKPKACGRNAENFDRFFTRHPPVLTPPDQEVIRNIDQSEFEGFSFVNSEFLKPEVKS
Experimental: as §2
Mesangial cells express PKCα, βI, ε, δ and ζ (Koya et al, 1997 supra, Kikkawa et al, 1994 supra), and βII at lower levels (Koya et al, 1997 supra). To examine the effect of MP5 on the ability of other PKC isozymes in mesangial cells to translocate to the particulate fraction, the cells were pre-treated with MP5 before being stimulated with PMA (1-100 nM). This agent stimulated the translocation of all the classical and novel isozymes. […] The studies were extended to other isozymes. For PKCγ (expressed mainly by neuronal cells), the effect of MP5 are tested using PMA-stimulated PC12 rat pheochromocytoma cells. To assess the effect of MP5 on the activation of atypical PKC isozymes such as PKCζ NIH3T3 cells were pre-treated with MP5 before being stimulated with tumour necrosis factor ? (1000 U/ml) which stimulates PKCζ activity in these cells (Lallena et al, 1999 supra). The isozyme were immunoprecipitated (antibody from Santa Cruz) and kinase activity was determined using a PKCε pseudosubstrate peptide or myelin basic protein as a substrate (Suzuma et al, 2002 supra).

PKCβI [4] = molecular target: T3, PKCβI (Homo sapiens, UniProt P05771); assay: as above; type: cell-based
T3 construct: endogenous in cells; host or cells: HUVEC (and unnamed other cell-types)
T3 sequence (P05771 whole entry): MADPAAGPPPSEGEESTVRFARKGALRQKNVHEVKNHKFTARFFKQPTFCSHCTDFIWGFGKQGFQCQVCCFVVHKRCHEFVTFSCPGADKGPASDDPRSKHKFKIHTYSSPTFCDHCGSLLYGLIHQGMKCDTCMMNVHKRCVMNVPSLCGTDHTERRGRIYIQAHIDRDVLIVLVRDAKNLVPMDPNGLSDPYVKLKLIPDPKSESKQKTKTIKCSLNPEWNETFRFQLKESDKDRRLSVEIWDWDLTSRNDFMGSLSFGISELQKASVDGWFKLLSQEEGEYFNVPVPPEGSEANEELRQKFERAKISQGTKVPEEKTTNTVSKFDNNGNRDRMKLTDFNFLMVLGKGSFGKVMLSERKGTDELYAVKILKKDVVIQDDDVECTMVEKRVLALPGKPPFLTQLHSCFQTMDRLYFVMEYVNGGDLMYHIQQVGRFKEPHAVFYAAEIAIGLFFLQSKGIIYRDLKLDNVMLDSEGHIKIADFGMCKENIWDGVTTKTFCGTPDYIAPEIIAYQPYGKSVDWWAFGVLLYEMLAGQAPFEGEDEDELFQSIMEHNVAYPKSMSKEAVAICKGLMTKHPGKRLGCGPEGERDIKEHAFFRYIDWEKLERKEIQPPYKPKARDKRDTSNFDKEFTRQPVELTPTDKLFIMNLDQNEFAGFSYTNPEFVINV

other PKC isozymes = assay: PKC translocation in Jurkat cells; type: cell-based
Text: as §2

PKCε = molecular target: T4, PKCε (Homo sapiens, UniProt Q02156); assay: PKC translocation in Jurkat cells; type: cell-based
T4 construct: endogenous in cells; host or cells: Jurkat
T4 sequence (Q02156 whole entry): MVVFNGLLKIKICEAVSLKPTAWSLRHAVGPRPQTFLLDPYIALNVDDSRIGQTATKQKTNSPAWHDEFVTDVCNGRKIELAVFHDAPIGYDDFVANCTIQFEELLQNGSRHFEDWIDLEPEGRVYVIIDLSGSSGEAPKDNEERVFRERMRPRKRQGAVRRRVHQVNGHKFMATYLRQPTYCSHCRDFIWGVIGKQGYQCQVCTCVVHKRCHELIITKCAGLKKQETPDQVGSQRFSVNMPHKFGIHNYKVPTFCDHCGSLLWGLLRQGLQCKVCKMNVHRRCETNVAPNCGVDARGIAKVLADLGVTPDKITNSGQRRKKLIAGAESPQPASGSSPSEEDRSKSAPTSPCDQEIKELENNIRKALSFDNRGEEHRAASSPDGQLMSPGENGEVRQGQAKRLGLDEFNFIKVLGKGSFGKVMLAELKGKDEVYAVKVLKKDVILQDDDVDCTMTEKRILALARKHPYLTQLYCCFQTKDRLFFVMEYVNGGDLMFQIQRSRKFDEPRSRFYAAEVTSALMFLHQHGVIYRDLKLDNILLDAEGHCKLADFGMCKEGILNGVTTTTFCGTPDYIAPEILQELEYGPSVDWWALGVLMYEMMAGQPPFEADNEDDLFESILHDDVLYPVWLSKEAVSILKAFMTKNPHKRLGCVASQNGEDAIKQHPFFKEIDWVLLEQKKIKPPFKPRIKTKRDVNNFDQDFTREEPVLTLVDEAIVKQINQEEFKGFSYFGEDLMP
Text: as §2

[5] = Formalin-induced pain test (hind paw licking time); type: in vivo
Experimental: Investigations of the effects of PT2 on pain induced by phenylquinolic acid (PQ writhing) and formalin have been made. In both the PQ writhing test (FIG. 3) and the formalin algesia test (FIG. 4), PT2 administered by intraperitoneal inoculation reduced pain and compared favourably with pain reduction by aspirin (oral, 100 mg/kg). In these tests, the EPUFA was administered 30 min before the pain stimulus and effects recorded over the following 20 min.
Investigations of PT2 in the formalin-induced analgesia model looking specifically at the biphasic response have also been undertaken and are shown in Table 1. It is well documented that in this model, aspirin suppresses only pain related to the inflammatory process (15-20 mins post-administration of formalin), while morphine suppresses pain in both phases of the response (0-5 min and 15-20 min).
Compounds were administered intraperationedly (ip) 30 min prior to the administration of formalin (0.02 ml, 1% solution) via subplantar injection into the right hind paw. Reduction of the induced hind paw licking time recorded during the following 0-5 min period (Phase I response) or 15-20 min period (Phase II response) was determined. The data in Table 1 are the mean responses of 5 animals in each group.

HUVEC = assay: Agonist-enhanced neutrophil adherence to HUVEC; type: cell-based, human; conditions: 20 μmol/l, 1 hr pre-treatment, TNF 4 hr
Experimental: FIG. 11 is a representation showing effect of β-oxa; β-thia and natural PUFA on TNF-enhanced neutrophil adherence to HUVEC. HUVEC were pre-treated with the fatty acids (20 μmol/l) for 60 min at 37° C. before being stimulated with TNF (125 U/200 μl medium) for 4 hr at 37° C. The cells were then co-incubated with neutrophils (5×10^5 cells/well) at 37° C. for 30 min and the degree of neutrophil adherence quantitated. The results are expressed as % of control and represent the mean±SEM of three separate experiments each performed in triplicate. * p<0.05, ***p<0.001, for significant differences between pre-treatment with fatty acid and control (one-way analysis of variance followed by the Dunnett test for multiple comparisons).
Adhesion of neutrophils, prepared by the rapid-single-step method (Ferrante et al, J. Immun. Methods 36:109-117, 1980), to HUVEC isolated from umbilical cords was carried out essentially as described (Huang et al, 1997 supra).
The magnitude of the suppressive effect of -MP3 was dependent on-pre-treatment time and concentration with significant effects observed with a pre-treatment time of 1 hr and a concentration of ≧5 μmol/l.

[6] = Tissue distribution after oral administration; type: in vivo
[7] = 100 mg/kg ip, 30 min prior to formalin, mean of 5 animals

PMA-stimulated translocation of PKCβII to the particulate fraction (PKCβII): inhibited PMA-stimulated translocation | PMA-stimulated translocation of PKCβI to the particulate fraction (PKCβI [4]; HUVEC and other cell-types): inhibited PMA-stimulated translocation | Effect on PKCε translocation (PKCε): < 15%
SMILES: CC/C=C\C/C=C\C/C=C\CCCCCCCCOCC(=O)O [MP5, β-oxa-21:3n-3]
Translocation of PKCβI to a particulate fraction, glucose-stimulated mesangial cells (PKCβI [1]): prevent the translocation of PKCβI; also recorded: inhibited this effect | Translocation of PKCβI to a particulate fraction, glomeruli of diabetic rats (PKCβI [2]): prevent the translocation of PKCβI; also recorded: inhibited this effect | Liver and kidney function and electrolyte levels ([3]; chronic): no adverse effects on liver and kidney function and electrolyte levels; also recorded: non toxic | Well-being of the animals (coat appearance, activity/mobility) ([3]; up to three months): no visible adverse effects | Selectivity between PKCβI and PKCβII (PKCβI [4]; HUVEC, depending on the concentrations used): able to distinguish between PKCβI and PKCβII | Effect on translocation of the other PKC isozymes (other PKC isozymes): no effects | % inhibition of pain response, Phase I (0-5 mins) [5, 7]: 34% | % inhibition of pain response, Phase II (15-20 mins) [5, 7]: 37% | Pain reduction in formalin test ([5]; intraperitoneal, 30 min before pain stimulus): much less effective in inhibiting pain | Inhibition of TNF-α-enhanced neutrophil adhesion to HUVEC (HUVEC): inhibited their ability to be stimulated | Presence in blood, organs and tissues after oral administration [6]: present in the blood and various organs; also recorded: taken up by tissues, including kidneys, and incorporated into phospholipids
